Experimental data published in publication PMC6832649, “Sa12b Peptide from Solitary Wasp Inhibits ASIC Currents in Rat Dorsal Root Ganglion Neurons” (Toxins, 2019).
“Also recorded” adds a separate entry of the source. Where no end group is shown, it is not given here.

Legend:
[1] = pH not stated for this peptide; ref [37]; cited from earlier work
Source text: RFa-related peptides have an NH2 group which is positively charged at pH 5 to 8 [21]. The effects of Sh5b could be due to the positive charge given by its amine group. Other inhibitors of ASICs, such as the PhcrTx1 peptide, which at pH 7.4 has a net charge of +5.03, APETx2 (net charge = +2.00), and PcTx1 (net charge = +3) also have that particularity. Aminoglycosides are also positively-charged ASICs modulators.

hASIC3 = system: hASIC3; parameters: method as in PMID 15044953; details: ref [34]; cited from earlier work
rASIC3 = system: rASIC3; parameters: method as in PMID 15044953; details: ref [34]; read-out: IC50, homomeric rASIC3; cited from earlier work
[2] = target: Acid-Sensing Ion Channels (ASIC) of rat dorsal root ganglion neurons
ASIC currents = details: 10 μM stated to be close to the EC50 of FMRFa; no reference given; cited from earlier work
Method: The peptide was initially tested at 10 μM, this concentration was used because it is close to the EC50 of FMRFa. With application of 10 µM Sa12b in preincubation form (20 s before and 5 s during acid pulse), Sa12b inhibited ASIC currents 92.7 ± 7.3% (p < 0.05 paired Student’s t-test, n = 5) (Figure 2A).

ASIC1a = details: ref [38]; cited from earlier work
ASIC1b = details: ref [9]; read-out: EC50, agonist of ASIC1b; cited from earlier work
[3] = system: ASIC currents in rat dorsal root ganglion (DRG) neurons; test: ASIC currents in DRG neurons, whole-cell voltage clamp; assay type: cell-based, Long-Evans CII rat (P7-P10)
Method: To study the effect of Sa12b and Sh5b on ASIC, DRG neurons were obtained from Long-Evans CII / ZV rats of 7 to 10 days of postnatal age, of either sex. Animals were provided by the laboratory animal facility ‘Claude Bernard’ of the Autonomous University of Puebla. The study was performed in accordance with the recommendations in the Guiding Principles in the Care and Use of Vertebrate Animals in Research and Training of the American Physiological Society, and with the regulations of the NOM-062-ZOO-1999 of the Mexican Ministry of Agriculture, Stockbreeding, Rural Development, Fishing and Food. The protocol was reviewed and approved by the Institutional Committee for Animal Care and Use (IACUC) of the Autonomous University of Puebla (VIEP-BUAP) on 17 July 2017. The ethical approval code is SOEE-UALVIEP-17-1. All efforts were made to minimize animal suffering and to reduce the number of animals used. DRG neurons were isolated and maintained in primary culture according to the methodology described previously. The dissection and cell culture were performed within a level I biosafety laminar flow hood (Nuaire, Plymouth, MN, USA). Rats were anesthetized with sevoflurane and sacrificed by decapitation. Subsequently, the rat was placed in prone position to make a longitudinal incision through the vertebral bodies removing the spinal cord. Dorsal root ganglia were isolated (approximately 12 to 18 per rat) using conventional dissection under a stereoscopic microscope (American Optical, Southbridge, MA, USA). Once extracted, DRG neurons were placed in a disposable sterile centrifuge tube (Corning, Corning, NY, USA), in which they were incubated for 30 min at 37 °C in Leibovitz L15 medium (L15) (Invitrogen, Waltham, MA, USA), added with 1.25 mg/mL of trypsin and 1.25 mg/mL of collagenase (both from Sigma-Aldrich, St. Louis, MO, USA) for an enzymatic dissociation.
After the enzymatic treatment, the ganglia were washed 3 times with 100% L15 medium; after each wash, the cells were subjected to mechanical dissociation using glass three-gauge Pasteur pipettes; between each wash, a cell pellet was formed using a centrifuge at 5000 rpm. After the third wash, once the cell pellet was formed, the supernatant was discarded, and the cell suspension was placed in a 35 mm culture dish (Corning) on 12 × 10 mm glass plates (Corning) previously treated with poly-D-lysine (Sigma-Aldrich, St. Louis, MO, USA).
Dissociated neurons were incubated for a period of time ranging from 2 to 8 h in a humidified atmosphere ([…], 5% CO2, at 37 °C) using a water-jacketed CO2 incubator (Nuaire, Plymouth, MN, USA) allowing for settlement and adhesion of isolated cells to the glass plates. The cells were cultured in modified L15 medium, supplemented with 10% fetal bovine serum (Gibco, Waltham, MA, USA), 100 IU penicillin (Lakeside, Hayward, CA USA), fungizone 2.5 μL/mL (Gibco), NaHCO3 15.7 mM (J.T. Baker, Radnor DE, USA) and 15.8 mM HEPES (Sigma-Aldrich, St. Louis, MO, USA).
After an incubation period of 2 to 8 h, the recording of ASIC currents in DRG neurons was performed. Cells were transferred to a recording chamber mounted in a phase-contrast inverted microscope (TMS, Nikon Co. Tokyo, Japan).
The recording chamber was constantly perfused with extracellular solution (Table 3). Recordings were performed in whole-cell voltage-clamp mode using an Axopatch 1D amplifier (Molecular Devices, Union City, CA, USA). Data collection and generation of commands for the perfusion change were carried out by the pClamp 9.2 (Molecular Devices) software in a 16-bit data acquisition system (Digidata 1320, Molecular Devices). […] The signals were digitized at 5 kHz. The series resistance was electronically compensated at 80%. Throughout the recording, access resistance and seal quality were monitored to ensure stable recording conditions.
Proton-gated currents were obtained with a holding potential of −60 mV. […]

[4] = target: Acid-Sensing Ion Channels (ASIC) of rat dorsal root ganglion neurons; remark: listed apart in the source
[5] = Sh5b 100 nM, co-application, mean ± E.S., n = 5
[6] = Sh5b 100 nM, preincubation, mean ± E.S., n = 9
[7] = Sh5b 100 nM, preincubation, single recording, Figure 6A
[8] = Sh5b 1 µM, preincubation, single recording, Figure 6B
[9] = Sh5b 3 µM, co-application, single recording, Figure 5A
[10] = Sh5b 10 µM, co-application, mean ± E.S., n = 9
[11] = Sh5b 10 µM, co-application, single recording, Figure 5B
[12] = Sh5b 10 µM, preincubation, mean ± E.S., n = 12
[13] = Sh5b 10 µM, preincubation, single recording, Figure 6C
[14] = Sh5b 30 µM, co-application, mean ± E.S., n = 6
[15] = Sh5b 30 µM, co-application, single recording, Figure 5C

APETx2
net charge [1]: +2.00
IC50 (hASIC3): ~175 nM
IC50 (rASIC3): 37 to 63 nM

Sa12b peptide
percent decrease of the ASIC I peak at pH 6.1, Sa12b by preincubation, 30 nM to 10 µM (highest at 1 µM), whole-cell voltage clamp of rat DRG neurons [2]: 98 % I_(peak)

Phe-Met-Arg-Phe amide [FMRFa, abundant tetrapeptide in invertebrate nervous systems, neurotransmitter and neuromodulator]
EC50 (ASIC currents): ~10000 nM

PcTx1
IC50 (ASIC1a): 1 nM
net charge [1]: +3
EC50 (ASIC1b): ~100 nM

DVDHVFLRF-NH2 [Sh5b]
effect on analyzed parameters of ASIC current ([3]; Sh5b 100 nM, co-application, n = 5): no consistent concentration-dependent effects
% ISS change (increase 🡹) [3, 5]: 🡹 85 ± 74%
% Ipeak change (decrease 🡻) [3, 5]: 🡻2 ± 4%
% Ƭdes change (decrease 🡻) [3, 5]: 🡻 1 ± 2%
effect on analyzed parameters ([3]; Sh5b 100 nM, preincubation, n = 9): no effect
% ISS change (increase 🡹) [3, 6]: 🡹 53 ± 38%
% Ipeak change (decrease 🡻) [3, 6]: 🡻0.5 ± 6%
% Ƭdes change (increase 🡹) [3, 6]: 🡹 13 ± 15%
change in Ƭdes [3, 7]: no change
increase of ISS [3, 7]: 3%
increase of Ipeak [3, 7]: 1%
% Ƭdes change (increase 🡹) ([3]; Sh5b 1 µM, preincubation, mean ± E.S., n = 5): 🡹 3 ± 5%
inhibition of ISS [3, 8]: 5%
inhibition of Ipeak [3, 8]: 1%
% Ipeak change (decrease 🡻) ([3]; Sh5b 3 µM, co-application, mean ± E.S., n = 12): 🡻6 ± 3%
increase of ISS [3, 9]: 30%
reduction of Ipeak [3, 9]: 9.6%
overall change of Ipeak ([3]; Sh5b 10 µM, co-application, increase in some cells, decrease in others): non-significant
% ISS change (increase 🡹) [3, 10]: 🡹 1 ± 11%
% Ƭdes change (decrease 🡻) [3, 10]: 🡻 10 ± 5%
% Ipeak change (increase 🡹) ([3]; Sh5b 10 µM, co-application, mean ± E.S., n = 9, non-significant): 🡹17 ± 15%
increase of ISS [3, 11]: 14.6%
increase of Ipeak [3, 11]: 44.6%
effect on studied parameters ([3]; Sh5b 10 µM, preincubation, n = 12): did not produced significant effects
% ISS change (decrease 🡻) [3, 12]: 🡻 8 ± 15%
% Ipeak change (decrease 🡻) [3, 12]: 🡻11 ± 4%
% Ƭdes change (decrease 🡻) [3, 12]: 🡻 5 ± 4%
change in Ƭdes [3, 13]: no change
increase of ISS [3, 13]: 26%
inhibition of Ipeak [3, 13]: 18%
ISS amplitude ([3]; Sh5b 30 µM, co-application, from 79 pA before peptide, single recording, Figure 5C): 159 pA
% Ipeak change (decrease 🡻) [3, 14]: 🡻1 ± 6%
% Ƭdes change (increase 🡹) [3, 14]: 🡹 9 ± 5%
increase of ISS [3, 15]: 102%
inhibition of Ipeak [3, 15]: 3.8%
overall effect on ASIC currents ([3]; Sh5b, both application protocols): did not show consistent results having both excitatory and inhibitory effects on the maximum ASIC currents; also recorded: did not produce consistent, reproducible, effects
concentration dependence of effects on ASIC current ([3]; Sh5b, co-application, 100 nM-30 µM): not dependent on concentration
effect on ISS/Ipeak relationship ([3]; Sh5b, co-application, overall): tendency towards the increase
effect on Ƭdes ([3]; Sh5b, co-application, overall): did not show noticeable differences
effect on ISS component ([3]; Sh5b, overall, preincubation): increased slightly
effect on ISS/Ipeak relationship ([3]; Sh5b, preincubation, overall): also increased
effect on current peak ([3]; Sh5b, preincubation, overall): tendency to inhibit the current peak
effect on Ƭdes and integral of the current ([3]; Sh5b, preincubation, overall): no consistent changes
reversibility of effect on ASIC current ([3]; after 1 min washout): reversed by 1 min peptide washout

DVDHVFLRF-NH2 [Sh5b peptide]
percent decrease of the ASIC I peak at pH 6.1, Sh5b by preincubation, 100 nM to 10 µM (largest at 10 µM; not significant), whole-cell voltage clamp of rat DRG neurons [4]: 11 % I_(peak)
